# pIC50: −log10 of the molar value.
# Tests used:
# [1] = test system: bicistronic HCV replicon (replicon RNA, GenBank Accession No. AJ242654); assay: HCV Replicon Assay; format: cell-based; conditions: Hepatitis C virus, 72 h, read-out: Replicon IC50
smiles,measurement,setting,value
"Cc1cc2c(cc1F)c(C#N)c(-c1ccc(S(=O)(=O)N[C@@H](C)C(F)(F)F)cn1)n2-c1ccncc1F [compound 1014, 6-[3-cyano-5-fluoro-1-(3-fluoropyridin-4-yl)-6-methyl-1H-indol-2-yl]-N-[(2S)-1,1,1-trifluoropropan-2-yl]pyridine-3-sulfonamide]",pIC50,[1],> 6.30
same,melting point,,204.2 to 210.5 °C
"C[C@@H](NS(=O)(=O)c1ccc(-c2c(C#N)c3cc(F)ccc3n2C2C=CCCC2)nc1)C(F)(F)F (stereo partly drawn) [compound 412, 6-[3-cyano-1-(cyclohex-2-en-1-yl)-5-fluoro-1H-indol-2-yl]-N-[(2R)-1,1,1-trifluoropropan-2-yl]pyridine-3-sulfonamide]",pIC50,[1],> 6.30
same,melting point,,187 to 188 °C
"CCc1cc2c(cc1F)c(C(N)=O)c(-c1ccc(NS(=O)(=O)C(C)(C)C)cn1)n2C1CCCCC1 [compound 999, 2-{5-[(tert-butylsulfonyl)amino]pyridin-2-yl}-1-cyclohexyl-6-ethyl-5-fluoro-1H-indole-3-carboxamide]",pIC50,[1],> 6.30
same,melting point,,264 to 265 °C
"CCn1c(-c2ccc(N(CC#N)S(=O)(=O)C3CC3)nc2)c(C#N)c2ccc(OC(C)C)cc21 [compound 294, N-{5-[3-cyano-1-ethyl-6-(propan-2-yloxy)-1H-indol-2-yl]pyridin-2-yl}-N-(cyanomethyl)cyclopropanesulfonamide]",pIC50,[1],5.70 to 6.30
same,melting point,,236 to 238 °C
"Cc1cc(-c2c(C#N)c3cc(F)ccc3n2-c2ncccn2)ncc1S(=O)(=O)N[C@@H](C)C(F)(F)F [compound 848, 6-[3-cyano-5-fluoro-1-(pyrimidin-2-yl)-1H-indol-2-yl]-4-methyl-N-[(2S)-1,1,1-trifluoropropan-2-yl]pyridine-3-sulfonamide]",pIC50,[1],> 6.30
same,melting point,,199 to 204 °C
"CC(C)n1c(-c2ncc(S(=O)(=O)N[C@@H](C)C3CC3)cn2)c(C#N)c2ccc(OC(F)F)cc21 [compound 207, 2-[3-cyano-6-(difluoromethoxy)-1-(propan-2-yl)-1H-indol-2-yl]-N-[(1S)-1-cyclopropylethyl]pyrimidine-5-sulfonamide]",pIC50,[1],5.70 to 6.30
same,melting point,,169 to 170 °C
"C[C@H](NS(=O)(=O)c1ccc(-c2c(C#N)c3ccc(F)cc3n2C2CCC2)nc1)C1CC1 [compound 144, 6-(3-cyano-1-cyclobutyl-6-fluoro-1H-indol-2-yl)-N-[(1S)-1-cyclopropylethyl]pyridine-3-sulfonamide]",pIC50,[1],> 6.30
same,melting point,,136 to 138 °C
"N#Cc1c(-c2ccc(S(=O)(=O)NC(CF)CF)cn2)n(C2CCCCC2)c2cc(OC(F)F)ccc12 [compound 100, 6-[3-cyano-1-cyclohexyl-6-(difluoromethoxy)-1H-indol-2-yl]-N-(1,3-difluoropropan-2-yl)pyridine-3-sulfonamide]",pIC50,[1],> 6.30
same,melting point,,175 to 178 °C
"CC(C)n1c(-c2ccc(S(=O)(=O)NC3CCC3)cn2)c(C#N)c2ccc(OC(F)F)cc21 [compound 2, 6-[3-cyano-6-(difluoromethoxy)-1-(propan-2-yl)-1H-indol-2-yl]-N-cyclobutylpyridine-3-sulfonamide]",pIC50,[1],> 6.30
same,melting point,,130 to 132 °C
"CC(C)(NS(=O)(=O)c1ccc(-c2c(C(N)=O)c3cc(F)c(OC(F)F)cc3n2C2CCCC2)nc1)C(F)(F)F [compound 863, 1-cyclopentyl-6-(difluoromethoxy)-5-fluoro-2-{5-[(1,1,1-trifluoro-2-methylpropan-2-yl)sulfamoyl]pyridin-2-yl}-1H-indole-3-carboxamide]",pIC50,[1],> 6.30
same,melting point,,215 to 217 °C
"Cc1cc2c(cc1F)c(C#N)c(-c1ccc(S(=O)(=O)N[C@@H](C)C(F)(F)F)cn1)n2-c1cscc1C [compound 1056, 6-[3-cyano-5-fluoro-6-methyl-1-(4-methylthiophen-3-yl)-1H-indol-2-yl]-N-[(2S)-1,1,1-trifluoropropan-2-yl]pyridine-3-sulfonamide]",pIC50,[1],> 6.30
same,melting point,,223.2 to 227.1 °C
"CCc1cc2c(cc1F)c(C#N)c(-c1ccc(S(=O)(=O)NC(C)(C)C)cn1)n2-c1ccccn1 [compound 882, N-tert-butyl-6-[3-cyano-6-ethyl-5-fluoro-1-(pyridin-2-yl)-1H-indol-2-yl]pyridine-3-sulfonamide]",pIC50,[1],> 6.30
same,melting point,,200 to 205 °C
"Cc1ccc2c(C#N)c(-c3ncc(S(=O)(=O)N[C@@H](C)C(F)(F)F)cn3)n(CC3CC3)c2c1 [compound 402, 2-[3-cyano-1-(cyclopropylmethyl)-6-methyl-1H-indol-2-yl]-N-[(2S)-1,1,1-trifluoropropan-2-yl]pyrimidine-5-sulfonamide]",pIC50,[1],> 6.30
same,melting point,,259 to 260 °C
"C[C@H](NS(=O)(=O)c1ccc(-c2c(C#N)c3ccc(C4CC4)cc3n2C2CCC2)nc1)C1CC1 [compound 236, 6-(3-cyano-1-cyclobutyl-6-cyclopropyl-1H-indol-2-yl)-N-[(1S)-1-cyclopropylethyl]pyridine-3-sulfonamide]",pIC50,[1],> 6.30
same,melting point,,170 to 176 °C
"Cc1ccc2c(C#N)c(-c3ccc(S(=O)(=O)N[C@@H](C)C4CC4)cn3)n(C3CCC3)c2c1 [compound 238, 6-(3-cyano-1-cyclobutyl-6-methyl-1H-indol-2-yl)-N-[(1S)-1-cyclopropylethyl]pyridine-3-sulfonamide]",pIC50,[1],> 6.30
same,melting point,,181 to 187 °C
"Cc1ccc2c(c1)c(C#N)c(-c1ccc(S(=O)(=O)N[C@@H](C)C(F)(F)F)cn1)n2-c1ccccn1 [compound 503, 6-[3-cyano-5-methyl-1-(pyridin-2-yl)-1H-indol-2-yl]-N-[(2S)-1,1,1-trifluoropropan-2-yl]pyridine-3-sulfonamide]",pIC50,[1],5.70 to 6.30
same,melting point,,165 to 167 °C
"CCc1ccc2c(C#N)c(-c3ccc(S(=O)(=O)NC(CF)CF)cn3)n(C3CCCC3)c2c1 [compound 310, 6-(3-cyano-1-cyclopentyl-6-ethyl-1H-indol-2-yl)-N-(1,3-difluoropropan-2-yl)pyridine-3-sulfonamide]",pIC50,[1],> 6.30
same,melting point,,204.5 to 205 °C
"CC(C)c1ccc2c(C#N)c(-c3ccc(S(=O)(=O)NC(CF)CF)cn3)n(C(C)C)c2c1 [compound 456, 6-[3-cyano-1,6-di(propan-2-yl)-1H-indol-2-yl]-N-(1,3-difluoropropan-2-yl)pyridine-3-sulfonamide]",pIC50,[1],> 6.30
same,melting point,,165 to 173 °C
"Cc1cc2c(cc1F)c(C#N)c(-c1ccc(S(=O)(=O)N[C@@H](C)C(F)(F)F)cn1)n2-c1ccc(F)nc1 [compound 1015, 6-[3-cyano-5-fluoro-1-(6-fluoropyridin-3-yl)-6-methyl-1H-indol-2-yl]-N-[(2S)-1,1,1-trifluoropropan-2-yl]pyridine-3-sulfonamide]",pIC50,[1],> 6.30
same,melting point,,246.8 to 252.7 °C
"CCS(=O)(=O)Nc1ccc(-c2c(C#N)c3ccc(OCC(F)(F)F)cc3n2CC2CC2)nc1 [compound 284, N-{6-[3-cyano-1-(cyclopropylmethyl)-6-(2,2,2-trifluoroethoxy)-1H-indol-2-yl]pyridin-3-yl}ethanesulfonamide]",pIC50,[1],5.70 to 6.30
same,melting point,,190 to 195 °C
"CCc1cc2c(cc1F)c(C#N)c(-c1ccc(S(=O)(=O)NC(C)(C)C)cn1)n2-c1ccccc1 [compound 884, N-tert-butyl-6-(3-cyano-6-ethyl-5-fluoro-1-phenyl-1H-indol-2-yl)pyridine-3-sulfonamide]",pIC50,[1],> 6.30
same,melting point,,175 to 180 °C
"Cc1ccc2c(c1)c(C#N)c(-c1ccc(S(=O)(=O)N[C@@H](C)C(F)(F)F)cn1)n2CC1CC1 [compound 372, 6-[3-cyano-1-(cyclopropylmethyl)-5-methyl-1H-indol-2-yl]-N-[(2S)-1,1,1-trifluoropropan-2-yl]pyridine-3-sulfonamide]",pIC50,[1],> 6.30
same,melting point,,175 to 180 °C
"Cc1cc2c(cc1F)c(C(N)=O)c(-c1ccc(S(=O)(=O)N[C@@H](C)C(F)(F)F)cn1)n2-c1cnccn1 [compound 875, 5-fluoro-6-methyl-1-(pyrazin-2-yl)-2-(5-{[(2S)-1,1,1-trifluoropropan-2-yl]sulfamoyl}pyridin-2-yl)-1H-indole-3-carboxamide]",pIC50,[1],> 6.30
same,melting point,,162 to 169 °C
"N#Cc1c(-c2ccc(S(=O)(=O)NC3(C(F)(F)F)CC3)cn2)n(-c2ncccn2)c2cc(OC(F)F)ccc12 [compound 690, 6-[3-cyano-6-(difluoromethoxy)-1-(pyrimidin-2-yl)-1H-indol-2-yl]-N-[1-(trifluoromethyl)cyclopropyl]pyridine-3-sulfonamide]",pIC50,[1],5.70 to 6.30
same,melting point,,170 to 174 °C
"Cc1ccc2c(C#N)c(-c3ncc(S(=O)(=O)NC(CF)CF)cn3)n(C3CCCC3)c2c1 [compound 135, 2-(3-cyano-1-cyclopentyl-6-methyl-1H-indol-2-yl)-N-(1,3-difluoropropan-2-yl)pyrimidine-5-sulfonamide]",pIC50,[1],> 6.30
same,melting point,,229 to 231 °C
"CCc1ccc2c(C#N)c(-c3ccc(S(=O)(=O)NC(C)(C)C(F)(F)F)cn3)n(C3CCC3)c2c1 [compound 481, 6-(3-cyano-1-cyclobutyl-6-ethyl-1H-indol-2-yl)-N-(1,1,1-trifluoro-2-methylpropan-2-yl)pyridine-3-sulfonamide]",pIC50,[1],> 6.30
same,melting point,,160 to 165 °C
"CC1(NS(=O)(=O)c2ccc(-c3c(C#N)c4cc(Cl)c(OC(F)F)cc4n3C3CCC3)nc2)CC1 [compound 658, 6-[5-chloro-3-cyano-1-cyclobutyl-6-(difluoromethoxy)-1H-indol-2-yl]-N-(1-methylcyclopropyl)pyridine-3-sulfonamide]",pIC50,[1],> 6.30
same,melting point,,218 to 226 °C
"C[C@H](NS(=O)(=O)c1ccc(-c2c(C#N)c3cc(Cl)ccc3n2C2CCC2)nc1)C(F)(F)F [compound 376, 6-(5-chloro-3-cyano-1-cyclobutyl-1H-indol-2-yl)-N-[(2S)-1,1,1-trifluoropropan-2-yl]pyridine-3-sulfonamide]",pIC50,[1],> 6.30
same,melting point,,193 to 198 °C
"CC(C)NS(=O)(=O)c1cnc(-c2c(C#N)c3cc(F)ccc3n2C(C)C)nc1 [compound 123, 2-[3-cyano-5-fluoro-1-(propan-2-yl)-1H-indol-2-yl]-N-(propan-2-yl)pyrimidine-5-sulfonamide]",pIC50,[1],> 6.30
same,melting point,,192 to 197 °C
